Data set [1] concerns SH-SY5Y. Kind of data set: Inhibition of salsolinol-induced apoptosis in human SH-SY5Y cells assessed as caspase 3/7 activity at 0.05 uM incubated for 24 hrs using Ac-DEVD-AMC as substrate by fluorescence analysis (reference value: 100%). Format: functional. On the set-up: scale not given: the % may be the effect or the level left.
The test system of data set [2] is SH-SY5Y. Kind of data set: Inhibition of glutamate-induced apoptosis in human SH-SY5Y cells assessed as caspase 3/7 activity at 0.05 uM incubated for 1 hr using Ac-DEVD-AMC as substrate by fluorescence analysis (reference value: 100%). Format: functional. More on the design: scale not given: the % may be the effect or the level left.
In data set [3] the test system is SH-SY5Y. Kind of data set: Inhibition of salsolinol-induced apoptosis in human SH-SY5Y cells assessed as caspase 3/7 activity at 0.5 uM incubated for 24 hrs using Ac-DEVD-AMC as substrate by fluorescence analysis (reference value: 100%). Format: functional. On the set-up: scale not given: the % may be the effect or the level left.
Data set [4] concerns SH-SY5Y. Kind of data set: Inhibition of glutamate-induced apoptosis in human SH-SY5Y cells assessed as caspase 3/7 activity at 0.5 uM incubated for 1 hr using Ac-DEVD-AMC as substrate by fluorescence analysis (reference value: 100%). Format: functional. More on the design: scale not given: the % may be the effect or the level left.
For data set [5], the system named is SH-SY5Y. Kind of data set: Inhibition of Salsolinol-induced oxidative stress in human SH-SY5Y cells assessed as reduction in superoxide radical formation measured after 24 hrs by DHE staining based fluorescence spectrophotometry. Format: functional, cell-based. Conditions: dose 10-1000 µM.
Data set [6] deals with SH-SY5Y. Kind of data set: Neuroprotective activity against salsolinol-induced neurotoxicity in human SH-SY5Y cells assessed as cell death at 1000 uM measured after 24 hrs by PI staining based analysis (reference value: 100%). Format: functional.
Data set [7] deals with SH-SY5Y. Kind of data set: Neuroprotective activity against salsolinol-induced neurotoxicity in human SH-SY5Y cells assessed as cell viability at 100 uM measured after 24 hrs by calcein-AM staining based fluorescence analysis (reference value: 70.49 +/-0.51%). Format: functional. The settings on record: read-out: Activity.
Data set [8] can be described thus: Inhibition of salsolinol-induced mPTP opening in human SH-SY5Y cells assessed as fold change in fluorescence intensity at 1000 uM measured after 24 hrs by calcein AM/CoCl2 based fluorescence microscopic analysis (reference value: 0.49 +/-0.02). Format: functional.
Data set [9] relates to SH-SY5Y. Kind of data set: Inhibition of salsolinol-induced apoptosis in human SH-SY5Y cells assessed as appearance of necrotic cells along with early and late apoptotic cells at 1000 uM measured after 24 hrs by AO/PIstaining based fluorescence microscopy. Format: functional, cell-based.
Data set [10] can be described thus: Cytotoxicity against human SH-SY5Y cells assessed as cell viability at 1000 uM measured after 24 hrs by calcein-AM staining based fluorescence analysis. The settings on record: read-out: Activity.
The nature of data set [11]: Cytotoxicity against human SH-SY5Y cells assessed as cell viability at 10 uM measured after 24 hrs by calcein-AM staining based fluorescence analysis. Conditions: read-out: Activity.
The nature of data set [12]: Cytotoxicity against human SH-SY5Y cells assessed as cell viability at 100 uM measured after 24 hrs by calcein-AM staining based fluorescence analysis. The settings on record: read-out: Activity.
A short description of data set [13]: Inhibition of salsolinol-induced mitochondrial depolarization in human SH-SY5Y cells assessed as mitochondrial membrane potential at 100 uM measured after 24 hrs by JC-1 staining based flow cytometry (reference value: 45.3 +/-2.09%). Format: functional. More on the design: scale not given: the % may be the effect or the level left.
Data set [14] can be described thus: Inhibition of salsolinol-induced mitochondrial depolarization in human SH-SY5Y cells assessed as mitochondrial membrane potential at 1000 uM measured after 24 hrs by JC-1 staining based flow cytometry (reference value: 45.3 +/-2.09%). Format: functional. On the set-up: scale not given: the % may be the effect or the level left. A general note: Flow cytometry measures light scatter and fluorescence of single cells or particles in a stream.

Data set [15] relates to SH-SY5Y. Kind of data set: Inhibition of salsolinol-induced apoptosis in human SH-SY5Y cells assessed as caspase 3/7 activity at 1000 uM incubated for 24 hrs using Ac-DEVD-AMC as substrate by fluorescence analysis (reference value: 100%). On the set-up: scale not given: the % may be the effect or the level left. Format: functional.
For data set [16], the system named is SH-SY5Y. Kind of data set: Inhibition of Salsolinol-induced oxidative stress in human SH-SY5Y cells assessed as reduction in superoxide radical formation at 1000 uM measured after 24 hrs by DHE staining based fluorescence microscopy. Format: functional, cell-based.
The test system of data set [17] is SH-SY5Y. Kind of data set: Inhibition of Salsolinol-induced oxidative stress in human SH-SY5Y cells assessed as superoxide radical formation at 1000 uM measured after 24 hrs by DHE staining based fluorescence spectrophotometry (reference value: 100%). More on the design: scale not given: the % may be the effect or the level left. Format: functional.
The test system of data set [18] is SH-SY5Y. Kind of data set: Neuroprotective activity against salsolinol-induced neurotoxicity in human SH-SY5Y cells assessed as cell death at 100 uM measured after 24 hrs by PI staining based analysis (reference value: 100%). Format: functional.
The subject of data set [19] is SH-SY5Y. Kind of data set: Neuroprotective activity against salsolinol-induced neurotoxicity in human SH-SY5Y cells assessed as cell viability at 1000 uM measured after 24 hrs by calcein-AM staining based fluorescence analysis (reference value: 70.49 +/-0.51%). Format: functional. The settings on record: read-out: Activity.
A short description of data set [20]: Cytotoxicity against human SH-SY5Y cells assessed as cell viability at 1 uM measured after 24 hrs by calcein-AM staining based fluorescence analysis. Conditions: read-out: Activity.
The subject of data set [21] is SH-SY5Y. Kind of data set: Inhibition of salsolinol-induced apoptosis in human SH-SY5Y cells assessed as appearance of necrotic cells at 1 uM measured after 24 hrs by AO/PIstaining based fluorescence microscopy. Format: functional, cell-based.
In data set [22] the test system is SH-SY5Y. Kind of data set: Neuroprotective activity against salsolinol-induced neurotoxicity in human SH-SY5Y cells assessed as cell death at 1 uM measured after 24 hrs by PI staining based analysis (reference value: 100%). Format: functional.
Data set [23] deals with SH-SY5Y. Kind of data set: Inhibition of Salsolinol-induced oxidative stress in human SH-SY5Y cells assessed as reduction in superoxide radical formation at 1 uM measured after 24 hrs by DHE staining based fluorescence microscopy. Format: functional, cell-based.
Data set [24] deals with SH-SY5Y. Kind of data set: Neuroprotective activity against salsolinol-induced neurotoxicity in human SH-SY5Y cells assessed as cell viability at 0.1 uM measured after 24 hrs by calcein-AM staining based fluorescence analysis (reference value: 70.49 +/-0.51%). Format: functional. Conditions: read-out: Activity.
Data set [25] has as its system SH-SY5Y. Kind of data set: Inhibition of salsolinol-induced mitochondrial depolarization in human SH-SY5Y cells assessed as mitochondrial membrane potential at 10 uM measured after 24 hrs by JC-1 staining based flow cytometry (reference value: 45.3 +/-2.09%). Format: functional.
For data set [26], the system named is SH-SY5Y. Kind of data set: Inhibition of glutamate-induced oxidative stress in human SH-SY5Y cells assessed as reduction in superoxide radical formation at 1 uM measured after 4 hrs by DHE staining based fluorescence microscopy. Format: functional, cell-based.
In data set [27] the test system is SH-SY5Y. Kind of data set: Inhibition of salsolinol-induced apoptosis in human SH-SY5Y cells assessed as caspase 3/7 activity at 1 uM incubated for 24 hrs using Ac-DEVD-AMC as substrate by fluorescence analysis (reference value: 100%). On the set-up: scale not given: the % may be the effect or the level left. Format: functional.
Data set [28] deals with SH-SY5Y. Kind of data set: Inhibition of glutamate-induced oxidative stress in human SH-SY5Y cells assessed as superoxide radical formation at 0.1 uM measured after 4 hrs by DHE staining based fluorescence spectrophotometry (reference value: 100%). Format: functional. More on the design: scale not given: the % may be the effect or the level left.
The subject of data set [29] is SH-SY5Y. Kind of data set: Inhibition of salsolinol-induced mitochondrial depolarization in human SH-SY5Y cells assessed as recovery of mitochondrial membrane potential at 0.1 uM measured after 24 hrs by JC-1 staining based flow cytometry. Format: functional, cell-based.
The subject of data set [30] is SH-SY5Y. Kind of data set: Neuroprotective activity against salsolinol-induced neurotoxicity in human SH-SY5Y cells assessed as cell viability at 1 uM measured after 24 hrs by calcein-AM staining based fluorescence analysis (reference value: 70.49 +/-0.51%). Conditions: read-out: Activity. Format: functional.
Data set [31] deals with SH-SY5Y. Kind of data set: Inhibition of glutamate-induced mitochondrial depolarization in human SH-SY5Y cells assessed as recovery of mitochondrial membrane potential at 0.1 to 1 uM incubated for 1 hr by JC10 dye based fluorescence analysis. Format: functional, cell-based. The settings on record: dose 0.1-1 µM.
Data set [32] concerns SH-SY5Y. Kind of data set: Inhibition of salsolinol-induced apoptosis in human SH-SY5Y cells assessed as caspase 3/7 activity at 0.1 uM incubated for 24 hrs using Ac-DEVD-AMC as substrate by fluorescence analysis (reference value: 100%). Format: functional. On the set-up: scale not given: the % may be the effect or the level left.
Data set [33] has as its system SH-SY5Y. Kind of data set: Neuroprotective activity against salsolinol-induced neurotoxicity in human SH-SY5Y cells assessed as cell death at 0.1 uM measured after 24 hrs by PI staining based analysis (reference value: 100%). Format: functional.
Data set [34] in a line: Cytotoxicity against human SH-SY5Y cells assessed as cell viability at 0.1 uM measured after 24 hrs by calcein-AM staining based fluorescence analysis. Conditions: read-out: Activity.
Data set [35] in a line: Inhibition of salsolinol-induced mPTP opening in human SH-SY5Y cells assessed as fold change in fluorescence intensity at 1 uM measured after 24 hrs by calcein AM/CoCl2 based fluorescence microscopic analysis (reference value: 0.49 +/-0.02). Format: functional.
Data set [36] concerns SH-SY5Y. Kind of data set: Inhibition of Salsolinol-induced oxidative stress in human SH-SY5Y cells assessed as superoxide radical formation at 1 uM measured after 24 hrs by DHE staining based fluorescence spectrophotometry (reference value: 100%). Format: functional. More on the design: scale not given: the % may be the effect or the level left.
Data set [37] deals with SH-SY5Y. Kind of data set: Neuroprotective activity against glutamate-induced neurotoxicity in human SH-SY5Y cells assessed as cell death at 1 uM measured after 24 hrs by PI staining based assay (reference value: 100%). Format: functional.
Data set [38] deals with SH-SY5Y. Kind of data set: Inhibition of Salsolinol-induced oxidative stress in human SH-SY5Y cells assessed as superoxide radical formation at 0.1 uM measured after 24 hrs by DHE staining based fluorescence spectrophotometry (reference value: 100%). Format: functional. More on the design: scale not given: the % may be the effect or the level left.
The test system of data set [39] is SH-SY5Y. Kind of data set: Inhibition of glutamate-induced apoptosis in human SH-SY5Y cells assessed as reduction in caspase 3/7 activity at 0.1 to 1 uM incubated for 1 hr using Ac-DEVD-AMC as substrate by fluorescence analysis. Format: functional. Conditions: dose 0.1-1 µM.
Data set [40] deals with SH-SY5Y. Kind of data set: Inhibition of glutamate-induced oxidative stress in human SH-SY5Y cells assessed as superoxide radical formation at 1 uM measured after 4 hrs by DHE staining based fluorescence spectrophotometry (reference value: 100%). Format: functional. More on the design: scale not given: the % may be the effect or the level left.

Activity calls are given as the source filed them. No cut-off for these calls is given here.

For the molecule `CC(=O)N[C@@H](CC(=O)O)C(=O)N[C@@H](CCC(=O)O)C(=O)N[C@H](C(=O)N[C@@H](CC(=O)O)C(=O)O)C(C)C`, the Activity in data set [1] is listed as 36.9%; in [2], 27.8%; in data set [3] it was 30.8%; in data set [4] it was 13.7%.

As for `CC(=O)N[C@@H](CS)C(=O)O` [ACETYLCYSTEINE], in data set [5], the inhibition entry is “Dose-Dependent Effect”. Moreover, the Activity in [6] amounted to 68.2%; in [13], 66.4%; in data set [14] it was 69.7%; in data set [15] it was 79.3%; in data set [17], 53.8%; in data set [18], 72.5%. In addition, the viability at 100 µM in [7] is 82.3%. The “fold change (FC)” value in data set [8] was 0.76. For the same molecule, the outcome in data set [9] was Active. Also, the viability at 24 h, 1000 µM in data set [10] is 120%. The viability at 24 h, 10 µM in data set [11] was 108%. The viability at 24 h, 100 µM in [12] was 114%. In addition, the inhibition entry in data set [16] is “Active”. For the same molecule, the viability at 1000 µM in data set [19] is 89%.

Take `C=C(C(=O)OCc1c[nH]nn1)[C@@H]1CC[C@]2(COC(C)=O)CC[C@]3(C)[C@H](CC[C@@H]4[C@@]5(C)CC[C@H](OC(C)=O)C(C)(C)[C@@H]5CC[C@]43C)[C@@H]12`: the viability at 24 h, 1 µM in [20] is 119%. The result in data set [21] and in data set [29] was Active. Moreover, the Activity in data set [22] was found to be 59.3%; in data set [27], 24.3%; in data set [28], 75.7%; in data set [32], 42.2%; in data set [33] it was 62.3%; in [36] it was 81%. Moreover, the Activity in data set [37] turned out to be 85%; in [38] it was 83.7%; in data set [40], 72.2%. The inhibition result in data set [23] and in data set [26] was “Active” throughout. Further, in data set [24], the viability at 0.1 µM is 81.4%. The viability at 24 h, 10 µM in [11] is 30.5%. In addition, the outcome in data set [25] and in data set [31] was inactive. Besides, in [30], the viability at 1 µM was 97.9%. For the same molecule, the viability at 24 h, 0.1 µM in data set [34] was 97.4%. Besides, in data set [35], the “fold change (FC)” value is on record as 1.14. In addition, the “inhibition (INH)” value in [39] came out at 6%.

The values above are taken from ChEMBL document CHEMBL4813944 (Eur J Med Chem, 2021).
